# According to patent US8436006B2, “2-amino-quinazoline derivatives useful as inhibitors of β-secretase (BACE)” (Jansssen Pharmaceutica N.V., priority 2004, dated 2013):
# Target: T1, β-secretase (BACE) (Homo sapiens, UniProt P56817)
# T1 construct: purchased Panvera
# Experiment: BACE FS1% Inhibition Assay (Example 160)
# Format: biochemical
# Protocol: The following reagents were used in this assay: sodium acetate, PEB8000 (Sigma), DMSO, HEPES, FS1 substrate [[…]], β-secretase (BACE) (Panvera), and 96-well plate (HE microplate, Molecular Devices). […] The FS1-substrate stock solution was prepared in DMSO as a 10 mg/mL solution. The FS1-substrate working solution was prepared by diluting the 10 mg/mL stock solution with substrate assay buffer to a final concentration of 300 μg/mL. The β-secretase (BACE) working solution was prepared by diluting a 0.83 mg/mL BACE stock solution with enzyme assay buffer to a final concentration of 4 μg/mL. Test compounds were dissolved in DMSO to 10 mM. […] The screening procedure for this assay was as follows: 15 μL of BACE working solution was pipetted into each well of a 96-well plate. To each well was the pipetted 2 μL of test compound at the selected concentration. Test compound and BACE were then mixed with a pipettor and incubated for 20 min at room temperature. To each well was then added 10 μL of the FS1 substrate working solution. The plates were then incubated for 1 hour at room temperature. […] The procedure for the blank was as follows. 15 μL of assay buffer was pipetted into each well to be used as a blank control. To each well was then added 2 μL of vehicle and 10 μL of FS1-substrate working solution. The plates were then incubated for 1 hour at room temperature. […] The procedure for the positive control was as follows: 15 μL of BACE working solution was pipetted into each well to be used as a positive control. To each well was then pipetted 2 μL of vehicle. Vehicle and BACE were then mixed with a pipettor and incubated for 20 min at room temperature. To each well was then added 10 μL of the FS1 substrate working solution. The plates were then incubated for 1 hour at room temperature. […] For test compounds, % inhibition was determined at each concentration as follows: [formula]
# T1 sequence (P56817 46-501): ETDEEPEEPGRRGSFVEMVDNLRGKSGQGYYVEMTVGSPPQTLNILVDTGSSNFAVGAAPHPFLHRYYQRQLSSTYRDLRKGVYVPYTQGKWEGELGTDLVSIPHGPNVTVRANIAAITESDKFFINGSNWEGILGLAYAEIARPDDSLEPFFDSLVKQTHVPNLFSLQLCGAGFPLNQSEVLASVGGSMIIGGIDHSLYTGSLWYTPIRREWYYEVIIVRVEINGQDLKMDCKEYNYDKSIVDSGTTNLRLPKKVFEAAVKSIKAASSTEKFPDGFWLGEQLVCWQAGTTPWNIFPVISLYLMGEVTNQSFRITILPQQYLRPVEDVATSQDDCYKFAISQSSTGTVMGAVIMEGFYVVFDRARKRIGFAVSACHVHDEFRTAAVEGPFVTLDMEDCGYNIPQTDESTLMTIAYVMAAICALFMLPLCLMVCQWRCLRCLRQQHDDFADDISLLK
Structure (SMILES),% Inhibition (FS) (0.3 μM test compound) [%],% Inhibition (FS) (1 μM test compound) [%],% Inhibition (FS) (3 μM test compound) [%],"% Inhibition (FS) (0.3 μM test compound, 0.3 µM) [%]","% Inhibition (FS) (1 μM test compound, 1 µM) [%]","% Inhibition (FS) (3 μM test compound, 3 µM) [%]"
CC(C)CCC(=O)NCCN1Cc2cc(-c3cnc4ccccc4c3)ccc2N=C1N [Compound 675],35,<30,<30,–,–,–
Cc1ccccc1-c1ccc2c(c1)CN(CCNC(=O)C1CCC(C(F)(F)F)CC1)C(N)=N2 (stereo not drawn) [Compound 694],<30,<30,84,–,–,–
CN(C(=O)CC[C@@H](C1CCOCC1)N1Cc2cc(Oc3ccccc3)ccc2N=C1N)[C@H]1CC[C@H](C(=O)O)CC1 [Compound 746],85,104,112,–,–,–
NC1=Nc2ccc(-c3ccccc3Cl)cc2CN1CCNC(=O)C1CCC(C(F)(F)F)CC1 (stereo not drawn) [Compound 690],<30,<30,52,–,–,–
CCOC(=O)C1CCC(N(C)C(=O)CCC(C2CCCCC2)N2Cc3cc(Oc4ccccc4)ccc3N=C2N)CC1 (stereo not drawn) [Compound 737],–,–,–,22,34,97
CC(C)CCC(=O)NCCN1Cc2cc(-c3ccc4ccccc4c3)ccc2N=C1N [Compound 668],<30,<30,<30,–,–,–
CCCC(=O)NCCN1Cc2cc(-c3ccc4ccccc4c3)ccc2N=C1N [Compound 666],37,<30,<30,–,–,–
CCOC(=O)C1CCC(N(C)C(=O)CCC(C2CCCCC2)N2Cc3cc(Oc4ccccc4)ccc3N=C2N)CC1 (stereo not drawn) [Compound 763],–,–,–,<30,84,–
CC(C)(C)C(=O)NCCN1Cc2cc(-c3ccc4ccccc4c3)ccc2N=C1N [Compound 667],33,<30,<30,–,–,–
CN(Cc1cccc(CC(=O)O)c1)C(=O)CCC(C1CCCCC1)N1Cc2cc(Oc3ccccc3)ccc2N=C1N (stereo not drawn) [Compound 778],<30,77,–,–,–,–
COC(=O)[C@H](COCc1ccccc1)N(C)C(=O)CC[C@@H](C1CCOCC1)N1Cc2cc(Oc3ccccc3)ccc2N=C1N [Compound 786],97,–,–,–,–,–
CN(C(=O)CCC(C1CCCCC1)N1Cc2cc(Oc3ccccc3)ccc2N=C1N)c1ccc(C(=O)O)cc1 (stereo not drawn) [Compound 766],<30,<30,<30,–,–,–
CC(CC(=O)NCCN1Cc2cc(-c3ccccc3)ccc2N=C1N)C(F)(F)F (stereo not drawn) [Compound 685],50,90,–,–,–,–
NC1=Nc2ccc(-c3ccc4ccccc4c3)cc2CN1CCNC(=O)C1CCC1 [Compound 663],<30,<30,<30,–,–,–
COc1ccc(C(CCC(=O)N(C)C2CCCCC2)N2Cc3cc(Oc4ccccc4)ccc3N=C2N)cc1 (stereo not drawn) [Compound 298],<30,75,110,–,–,–
CC(=O)N1CCC(C(=O)NCCN2Cc3cc(-c4ccccc4)ccc3N=C2N)CC1 [Compound 702],<30,<30,<30,–,–,–
NC1=Nc2ccc(-c3ccccc3Cl)cc2CN1CCNC(=O)CCC(F)(F)F [Compound 682],39,77,97,–,–,–
NC1=Nc2ccc(-c3ccccc3F)cc2CN1CCNC(=O)C1CCC(C(F)(F)F)CC1 (stereo not drawn) [Compound 688],<30,36,81,–,–,–
CN(C(=O)CCC(C1CCCCC1)N1Cc2cc(Oc3ccccc3)ccc2N=C1N)C1CCC(c2nn[nH]n2)CC1 (stereo not drawn) [Compound 770],<30,<30,<30,–,–,–

Structure (SMILES),% Inhibition (FS) (0.3 μM test compound) [%],% Inhibition (FS) (1 μM test compound) [%],% Inhibition (FS) (3 μM test compound) [%],"% Inhibition (FS) (0.3 μM test compound, 0.3 µM) [%]","% Inhibition (FS) (1 μM test compound, 1 µM) [%]","% Inhibition (FS) (3 μM test compound, 3 µM) [%]"
NC1=Nc2ccc(-c3cnc4ccccc4c3)cc2CN1CCNC(=O)C12CC3CC(CC(C3)C1)C2 [Compound 672],<30,<30,<30,–,–,–
NC1=Nc2ccc(-c3ccc4ccccc4c3)cc2CN1CCNC(=O)C12CC3CC(CC(C3)C1)C2 [Compound 665],35,<30,<30,–,–,–
CCCC(=O)NCCN1Cc2cc(-c3cnc4ccccc4c3)ccc2N=C1N [Compound 673],34,<30,<30,–,–,–
CC(CC(=O)NCCN1Cc2cc(-c3ccccc3F)ccc2N=C1N)C(F)(F)F (stereo not drawn) [Compound 681],67,100,–,–,–,–
NC1=Nc2ccc(-c3ccccc3F)cc2CN1CCNC(=O)CCC(F)(F)F [Compound 680],42,75,90,–,–,–
NC1=Nc2ccc(-c3ccccc3F)cc2CN1CCNC(=O)C1CCOCC1 [Compound 687],<30,50,87,–,–,–
CC(C)C(CNC(=O)C12CC3CC(CC(C3)C1)C2)N1Cc2cc(Oc3ccccc3)ccc2N=C1N (stereo not drawn) [Compound 562],106,118,128,–,–,–
CN(C(=O)CCC(C1CCCCC1)N1Cc2cc(Oc3ccccc3)ccc2N=C1N)C1CCC(O)CC1 (stereo not drawn) [Compound 639],–,–,–,<30,<30,48
CNC(=O)C1CCC(N(C)C(=O)CCC(C2CCCCC2)N2Cc3cc(Oc4ccccc4)ccc3N=C2N)CC1 (stereo not drawn) [Compound 765],<30,56,97,–,–,–
COC1CCCC(C(=O)NCCN2Cc3cc(C4=CCCC4)ccc3N=C2N)C1 (stereo not drawn) [Compound 706],<30,<30,<30,–,–,–
Cc1ccccc1-c1ccc2c(c1)CN(CCNC(=O)CCC(C)C)C(N)=N2 [Compound 661],68,98,–,–,–,–
NC1=Nc2ccc(-c3ccccc3Cl)cc2CN1CCNC(=O)C1CCOCC1 [Compound 689],33,82,–,–,–,–
CN(C(=O)CCC(C1CCCCC1)N1Cc2cc(Oc3ccccc3)ccc2N=C1N)C1(C(=O)O)CCCCC1 (stereo not drawn) [Compound 741],−48,−38,−25,–,–,–
COc1ccccc1-c1ccc2c(c1)CN([C@@H](CCC(=O)N(C)Cc1cnn(-c3ccccc3)c1)C1CCCCC1)C(N)=N2 [Compound 717],33,39,72,–,–,–
NC1=Nc2ccc(C3=CCCC3)cc2CN1CCNC(=O)C1CCC(C(F)(F)F)CC1 (stereo not drawn) [Compound 707],<30,<30,<30,–,–,–
CN(CCC#N)C(=O)CC[C@@H](C1CCCCC1)N1Cc2cc(-c3ccccc3F)ccc2N=C1N [Compound 725],33,74,126,–,–,–
NC1=Nc2ccc(C3=CCCCC3)cc2CN1CCNC(=O)C1CCC(C(F)(F)F)CC1 (stereo not drawn) [Compound 704],<30,<30,<30,–,–,–
Cc1ccccc1-c1ccc2c(c1)CN(CCNC(=O)CC(C)C(F)(F)F)C(N)=N2 (stereo not drawn) [Compound 679],78,99,–,–,–,–
